Literature values in patent US20050080043A1, “Self-preserved antibacterial nasal, inhalable, and topical ophthalmic preparations and medications” (priority 2000, published 2005).
Like-named read-outs stand apart in the source and are kept apart here.

CC[C@@H]1C(=O)OC[C@@H]1Cc1cncn1C [pilocarpine]
stability of drug solution (pH 5.0): very stable
stability of drug solution (pH 6.8): relatively unstable
